Legend:
[1] = system: corneal epithelial defects in the eyes of New Zealand white rabbits; assay: Rabbit corneal epithelial debridement model with healing impaired by topical dexamethasone (Example 1); assay type: in vivo; settings: for eyes with epithelial defect completely closed/healed by day 5: topical QID OU, all eyes on dexamethasone 0.1% QID, rHGH 100 μg/mL, 50 μL drop
Description: A rabbit debridement model was used to assess the effect of topically applied rHGH on corneal epithelial defect closure in a model where epithelial closure was impaired by concomitantly administered topical steroids (Dexamethasone 0.1% QID). Standard epithelial defects were created in the eyes of nine New Zealand white rabbits by standard methods. Rabbits received topical dexamethasone QID (4×/day) to all 18 eyes. Rabbits were randomized to one of three treatment arms post surgery: a control arm of dexamethasone only QID OU (both eyes), a vehicle group of BSS (balanced salt solution) QID OU, and test article of rHGH QID OU. One drop (50 μL) of rHGH (reconstituted in Ringers Lactate to achieve a final concentration of 100 μg/mL) (n=3) was applied topically four times to both eyes. All eyes were also treated with one drop of an antibiotic solution after the surgical defect creation. Photographic assessment (twice daily) and fluorescein assessment were used to determine the speed and quality of epithelial defect closure. The corneal defect size was estimated in the photographs by obtaining the pixel count of the defect and dividing by the pixel count of the cornea. The animals were sacrificed on day 5.
The solid black bars represent percent of eyes completely healed when treated with rHGH administered topically whereas the shaded bars represent percent of eyes completely healed when treated with BSS (balanced saline solution). Over the course of this study, no eyes were completely healed when treated with dexamethasone alone.

[2] = system: corneal epithelial defects in New Zealand white rabbits; assay: Corneal epithelial impaired healing debridement model, rHGH in HYSTEM/GSSG gel (Example 3); assay type: in vivo; settings: topical dexamethasone 0.1% 4x/day for 7 days; normal healing 4-5 days; some rabbits not completely closed at 7 days
Description: A corneal epithelial impaired healing debridement model was developed by utilizing a validated epithelial debridement procedure and treating immediately postoperative with topical steroids (dexamethasone). The corneal epithelial defects were created surgically in a standardized and reproducible manner in both eyes. The normal healing for epithelial defects in normal healthy rabbits is 4-5 days. […] This model confirmed delayed epithelial wound healing in New Zealand white rabbits.
Rabbits were randomized post surgical intervention to maintain a masked study. The examiner was masked to the treatment arm.
Recombinant Human Growth Hormone (rHGH) was reconstituted and prepared as instructed, and was delivered topically to the eye via a crosslinked hyaluronic acid gel polymer HYSTEM (with glutathione GSSG) at a concentration of 4 ug/day in a 50 ul drop BID, for 7 days (see Example 2). The comparator arms are shown in Table 1: (1) the polymer HYSTEM with GSSG but without rHGH (group 1) and (2) dexamethasone alone (no polymer and no rHGH) (group 3). In vivo clinical exams were performed twice daily to determine percent corneal healing, corneal defect size, and percent of eyes (cornea) completely healed.

Molecule | eyes starting to heal as quickly as Day 2 ([1]; Day 2, rHGH 100 μg/mL topical QID plus dexamethasone) [%] | speed of epithelial defect closure (photographic assessment) ([1]; comparison of treatment arms over 5 days) | eyes with epithelial defect completely closed/healed by day 5 [1] | tolerability of dosing ([1]; topical ocular dosing QID, 5 days) | time of healing of epithelial defects [2] [days]
rHGH: Recombinant human growth hormone; hydrophilic 22 Kda protein of 191 amino acids; Genotropin used in Example 2 | 10 | most rapid healing | 9/9 | tolerated the dosing well without clinical concerns | –
C[C@@H]1C[C@H]2[C@@H]3CCC4=CC(=O)C=C[C@]4(C)[C@@]3(F)[C@@H](O)C[C@]2(C)[C@@]1(O)C(=O)CO [dexamethasone, reference compound] | – | – | 0/9 | – | 7

— US20140107025A1, “OCULAR DRUG DELIVERY SYSTEM” (priority 2012, published 2014)
